From US11584762B1, “Near-infrared fluorescent indicators for lysosome and application thereof” (DALIAN UNIVERSITY OF TECHNOLOGY, priority 2022, dated 2023)

Tests used:
[1] = Photophysical properties in acetonitrile (absorption, emission, extinction coefficient, quantum yield); type: physicochemical
Protocol: The photophysical properties of compounds D1, D2, D25 and D26 were investigated. Compounds D1, D2, D25 and D26 were dissolved in DMSO to obtain a 1 mM stock solution. The stock solution was further diluted with acetonitrile to obtain a 1 μM testing solution, of which 1 μL trifluoroacetic acid (0.1% by volume) was added. The absorption spectrum, emission spectrum, quantum yield and molar extinction coefficient of these testing solutions were measured. The absorption spectrum was recorded on Agilent 8453 UV-Vis-Spectrophotometer, and the fluorescent spectrum was recorded on an Agilent fluorescence spectrometer. The maximum absorption spectrum (λab), the maximum emission spectrum (λem), the molar extinction coefficient (ε), and the fluorescence quantum yield (Φ^1) of compounds D1, D2, D25 and D26 were shown in Table 1.
(§1) The photophysical properties of compounds D6, D15, D20, D22, D46 and D51 are provided in Table 2, following a similar testing method as example 14 and example 15. […] It can be seen that such property is in favor of confocal imaging of lysosomes without PBS washing.

[2] = Emission in 2 mM CTAB (pH 3) or H2O (pH 7); type: physicochemical; settings: for Emission in 2 mM CTAB at pH 3 / Fluorescence in water at pH 7: FIG. 1, 1 μM; for Emission in 2 mM CTAB at pH 3: pH 3, lysosome-like microenvironment; for Fluorescence in water at pH 7: H2O; for Fluorescence emission in 2 mM CTAB at pH 3 / Fluorescence emission in water at pH 7: Table 2
Protocol: The properties of compounds D1, D2, D25 and D26 were investigated. Compounds D1, D2, D25 and D26 were dissolved in DMSO to obtain a 1 mM stock solution. The stock solution was further diluted with 2 mM CTAB (pH 3) or H2O (pH 7) to obtain a 1 μM testing solution. The absorption spectrum and emission spectrum of the testing solution were measured. The evaluated method of photophysical properties was the same as example 13.
CTAB (Hexadecyl trimethyl ammonium bromide) is a cationic surfactant with a critical micelle concentration of 0.9 mM. CTBA exists in the form of micelles in a 2 mM solution of CTAB, which not only helps dissolve dye molecules but also simulates the acidic microenvironment of lysosomes. […] It is preliminarily determined that such property is in favor of confocal imaging of lysosomes without PBS washing.
as §1

[3] = test system: lysosomes of RAW 264.7 cells; assay: Confocal imaging of live cell lysosomes co-stained with DND-26; type: cell-based; settings: co-stain 1 μM DND-26, PBS washed
Protocol: The fluorescent imaging of compounds D1, D6, D22 and D25. After incubating for 24 hours in a cell incubator with 5% CO2 at 37° C., RAW 264.7 cells were incubated with 1 μM D1 or 1 μM D6 for 5 min, or incubated with 1 μM D22 or 1 μM D25 for 60 min, then incubated with 1 μM DND-26 which is green lysosome probe for 5 min, washed three times with PBS, then imaged using a confocal microscope.
The fluorescence image of compounds D15, D20, D46 and D51. After incubating for 24 hours in a cell incubator with 5% CO2 at 37° C., RAW 264.7 cells were incubated with 1 μM D15 or 1 μM D20 for 5 min, or incubated with 1 μM D46 or 1 μM D51 for 60 min, then incubated with 1 μM DND-26 for 5 min, washed three times with PBS, and then imaged using a confocal microscope.

[4] = test system: lysosomes of RAW 264.7 cells; assay: Confocal imaging of lysosomes after chloroquine stimulation; type: cell-based; settings: 1 μM, co-staining D25 and DND-26, 20 µM chloroquine, within 5 min
Protocol: The fluorescence imaging of compound D25. After incubating for 24 hours in a cell incubator with 5% CO2 at 37° C., RAW 264.7 cells were incubated with 1 μM D25 for 60 min, then incubated with 1 μM DND-26 for 5 min, washed three times with PBS, and then imaged using a confocal microscope after adding 20 µM chloroquine. Chloroquine can cause protons to escape from lysosomes, so it can be used to raise the pH of the lysosomes.

[5] = test system: lysosomes of RAW 264.7 cells; assay: Confocal imaging of live cell lysosomes without washing; type: cell-based; settings: 100 nM for 60 min, no washing
Protocol: The fluorescence image of compound D25. After incubating for 24 hours in a cell incubator with 5% CO2 at 37° C., RAW 264.7 cells were incubated with 100 nM D25 for 60 min and then imaged using a confocal microscope.

[6] = test system: lysosomal membrane of RAW 264.7 cells; assay: STED-based super-resolution imaging; type: cell-based; settings: 250 nM for 60 min
Protocol: We used D25 as a representative to evaluate its ability to perform STED-based super-resolution imaging. After incubating for 24 hours in a cell incubator with 5% CO2 at 37° C., RAW 264.7 cells were stained with 250 nM D25 for 60 min and imaged using STED based microscope after replacing the staining solution with fresh MEM.

[7] = Confocal imaging of stained vesicles at pH 4.0 and pH 7.4; settings: 60 min
Protocol: We further investigate the targeting feature by imaging vesicles stained with D25 at pH 4.0 and pH 7.4.
The “droplet transfer” method was used to prepare vesicles composed of PC/Chol molar ratios of 7:3, following six steps as below: 1) Prepare 200 mM glucose aqueous solution and sucrose aqueous solution respectively. 2) Hydrophobic phase (0.3 mM PC in decane+0.3 mM CL in decane for PC/CL). 3) The hydrophobic phase was prepared by adding PC (0.3 mM) and possibly other lipids (SM and/or Chol) in decane. 4) Pipette the aqueous phase consisting of 20 μL of sucrose solution and the hydrophobic phase consisting of 600 μL PC/CL into a 1.5 ml centrifuge tube and shake them well. 5) Centrifuge the tube, then remove the mineral oil and wash the GUVs to remove excess solutes. 6) Suspend 30 μL of the pellet in 20 μL of 200 mM glucose solution. 7) Pipette 20 μL onto a glass slide and observe with a confocal microscope and fluorescence lifetime microscope.
Method for vesicles imaging, 30 μL of the vesicles was diluted with 20 μL of 200 mM glucose solution, then stained with D25 in pH 4 PBS (or in pH 7.4 PBS) for 60 min and imaged with a confocal microscope.

[8] = Table 1, acetonitrile, 1 μM, trifluoroacetic acid 0.1% by volume

CC1=CC(C)=[N+]2C1=C(c1ccccc1)c1c(C)cc(C=Cc3ccc4c(c3)c3ccccc3n4Cc3cn(CCN(C)CCN(C)C)nn3)n1[B-]2(F)F [D1]
Φ^1 (fluorescence quantum yield) ([1]; Table 1, acetonitrile): 0.83
ε (molar extinction coefficient) ([1]; Table 1, acetonitrile): 7.5 M^−1 · cm^−1 × 10^4
λab (maximum absorption) [1, 8]: 581 nm
λem (maximum emission) [1, 8]: 603 nm
Emission in 2 mM CTAB at pH 3 [2]: stable emission
Fluorescence in water at pH 7 [2]: almost no fluorescence
Lysosome targeting in confocal images ([3]; 1 μM for 5 min): can specifically target lysosomes

CC1=C(Cl)C(C)=[N+]2C1=C(c1ccccc1)c1c(C)c(Cl)c(C=Cc3ccc4c(c3)c3ccccc3n4Cc3cn(CCN(C)CCN(C)C)nn3)n1[B-]2(F)F [D2]
Φ^1 (fluorescence quantum yield) ([1]; Table 1, acetonitrile): 0.63
ε (molar extinction coefficient) ([1]; Table 1, acetonitrile): 10.4 M^−1 · cm^−1 × 10^4
λab (maximum absorption) [1, 8]: 604 nm
λem (maximum emission) [1, 8]: 650 nm
Emission in 2 mM CTAB at pH 3 [2]: stable emission
Fluorescence in water at pH 7 [2]: almost no fluorescence

CC1=C(Cl)C(C)=[N+]2C1=C(c1ccc(C)cc1)c1c(C)c(Cl)c(C=Cc3ccc4c(c3)c3ccccc3n4Cc3cn(CCN4CCNCC4)nn3)n1[B-]2(F)F [D6]
Φ^1 (fluorescence quantum yield) ([1]; Table 2, in acetonitrile): 0.73
ε (molar extinction coefficient) ([1]; Table 2, in acetonitrile): 8.1 M^−1 · cm^−1 × 10^4
λab (maximum absorption) ([1]; Table 2, in acetonitrile): 590 nm
λem (maximum emission) ([1]; Table 2, in acetonitrile): 615 nm
Fluorescence emission in 2 mM CTAB at pH 3 [2]: Stable
Fluorescence emission in water at pH 7 [2]: No
Lysosome targeting in confocal images ([3]; 1 μM for 5 min): can specifically target lysosomes

CCOC(=O)CCC1=C2C(C)=CC(C)=[N+]2[B-](F)(F)n2c(C=Cc3ccc4c(c3)c3ccccc3n4Cc3cn(CCCN(C)CCN(C)C)nn3)cc(C)c21 [D22]
Φ^1 (fluorescence quantum yield) ([1]; Table 2, in acetonitrile): 0.81
ε (molar extinction coefficient) ([1]; Table 2, in acetonitrile): 10.8 M^−1 · cm^−1 × 10^4
λab (maximum absorption) ([1]; Table 2, in acetonitrile): 611 nm
λem (maximum emission) ([1]; Table 2, in acetonitrile): 661 nm
Fluorescence emission in 2 mM CTAB at pH 3 [2]: Stable
Fluorescence emission in water at pH 7 [2]: No
Lysosome targeting in confocal images ([3]; 1 μM for 60 min): can specifically target lysosomes

CC1=CC(C=Cc2ccc3c(c2)c2ccccc2n3Cc2cn(CCN(C)CCN(C)C)nn2)=[N+]2C1=C(c1ccccc1)c1c(C)cc(C=Cc3ccc4c(c3)c3ccccc3n4Cc3cn(CCN(C)CCN(C)C)nn3)n1[B-]2(F)F [D25]
Φ^1 (fluorescence quantum yield) ([1]; Table 1, acetonitrile): 0.94
ε (molar extinction coefficient) ([1]; Table 1, acetonitrile): 9.2 M^−1 · cm^−1 × 10^4
λab (maximum absorption) [1, 8]: 664 nm
λem (maximum emission) [1, 8]: 684 nm
Change of fluorescence intensity after adding chloroquine [4]: only changed slightly
Emission in 2 mM CTAB at pH 3 [2]: stable emission
Fluorescence in water at pH 7 [2]: almost no fluorescence
Lysosome targeting in confocal images ([3]; 1 μM for 60 min): can specifically target lysosomes
Lysosome imaging without washing [5]: can be used for lysosome images without washing
Localization in super-resolution image [6]: localized in the lysosomal membrane
Fluorescence of stained vesicles at pH 4 ([7]; pH 4 PBS): intense fluorescence
Fluorescence of stained vesicles at pH 7.4 ([7]; pH 7.4 PBS): weak fluorescence

CC1=C(Cl)C(C=Cc2ccc3c(c2)c2ccccc2n3Cc2cn(CCN(C)CCN(C)C)nn2)=[N+]2C1=C(c1ccccc1)c1c(C)c(Cl)c(C=Cc3ccc4c(c3)c3ccccc3n4Cc3cn(CCN(C)CCN(C)C)nn3)n1[B-]2(F)F [D26]
Φ^1 (fluorescence quantum yield) ([1]; Table 1, acetonitrile): 0.72
ε (molar extinction coefficient) ([1]; Table 1, acetonitrile): 11.3 M^−1 · cm^−1 × 10^4
λab (maximum absorption) [1, 8]: 692 nm
λem (maximum emission) [1, 8]: 732 nm
Emission in 2 mM CTAB at pH 3 [2]: stable emission
Fluorescence in water at pH 7 [2]: almost no fluorescence

CCOC(=O)CCC1=C2C(C)=CC(/C=C/c3ccc4c(c3)c3ccccc3n4Cc3cn(CCCN(C)CCN(C)C)nn3)=[N+]2[B-](F)(F)n2c(/C=C/c3ccc4c(c3)c3ccccc3n4Cc3cn(CCCN(C)CCN(C)C)nn3)cc(C)c21 [D46]
Φ^1 (fluorescence quantum yield) ([1]; Table 2, in acetonitrile): 0.89
ε (molar extinction coefficient) ([1]; Table 2, in acetonitrile): 11.0 M^−1 · cm^−1 × 10^4
λab (maximum absorption) ([1]; Table 2, in acetonitrile): 659 nm
λem (maximum emission) ([1]; Table 2, in acetonitrile): 675 nm
Fluorescence emission in 2 mM CTAB at pH 3 [2]: Stable
Fluorescence emission in water at pH 7 [2]: No
Lysosome targeting in confocal images ([3]; 1 μM for 60 min): can specifically target lysosomes

COc1ccc(C2=C3C(C)=C(Cl)C(C=Cc4ccc5c(c4)c4ccccc4n5Cc4cn(CCN5CCNCC5)nn4)=[N+]3[B-](F)(F)n3c(C=Cc4ccc5c(c4)c4ccccc4n5Cc4cn(CCN5CCNCC5)nn4)c(Cl)c(C)c32)cc1 [D51]
Φ^1 (fluorescence quantum yield) ([1]; Table 2, in acetonitrile): 0.79
ε (molar extinction coefficient) ([1]; Table 2, in acetonitrile): 11.1 M^−1 · cm^−1 × 10^4
λab (maximum absorption) ([1]; Table 2, in acetonitrile): 689 nm
λem (maximum emission) ([1]; Table 2, in acetonitrile): 728 nm
Fluorescence emission in 2 mM CTAB at pH 3 [2]: Stable
Fluorescence emission in water at pH 7 [2]: No
Lysosome targeting in confocal images ([3]; 1 μM for 60 min): can specifically target lysosomes
